Results taken from the NIST ThermoML archive (doi:10.1016/j.jct.2015.08.014).

Test: xn = mol fraction of the nth substance listed
Details: 298.15 K, 100 kPa, Liquid, Alternating current cell with electrodes

CCCC[N+]1(C)CCCC1.N#CN=C=[N-] [1-butyl-1-methylpyrrolidinium dicyanamide] + O=C1CCCO1
electrical conductivity [S/m]
Details | Frequency=0.0075 MHz | Frequency=0.008 MHz | Frequency=0.00857143 MHz | Frequency=0.00892857 MHz | Frequency=0.00961538 MHz | Frequency=0.01 MHz
x1 = 0.0463 | – | 1.47 | 1.48 | 1.48 | 1.48 | 1.48
x1 = 0.0987 | – | 2.22 | 2.22 | 2.22 | 2.22 | 2.22
x1 = 0.1449 | – | 2.51 | 2.51 | 2.51 | 2.51 | –
x1 = 0.1859 | 2.67 | 2.67 | 2.67 | 2.67 | 2.68 | –
x1 = 0.2493 | 2.613 | 2.613 | 2.613 | 2.614 | 2.614 | –
x1 = 0.3029 | 2.54 | 2.54 | 2.54 | 2.54 | 2.54 | –
x1 = 0.3845 | 2.36 | 2.36 | 2.36 | 2.36 | 2.36 | –
x1 = 0.4985 | 2.08 | 2.08 | 2.08 | 2.08 | 2.08 | –
x1 = 0.6954 | 1.68 | 1.68 | 1.68 | 1.68 | 1.68 | –
x1 = 0.9013 | 1.39 | 1.39 | 1.39 | 1.39 | 1.39 | –
x1 = 1 | 1.318 | 1.318 | 1.318 | 1.318 | 1.318 | –
